What was measured:
[1] = tested on: non-sensitized mice; assay: PMB (native and conjugated forms) induced lethality, i.p.; type: in vivo, Male CB57BL/c mice; details: intraperitoneal injection, lethality monitored for 7 days
Experimental: (§1) As used herein the following definitions apply: • LD₀ is the highest non-toxic dose of PMB or its conjugate; • LD₁₀₀ is the dose of PMB or its conjugated form which results in 90-100% lethality when injected into a normal test animal; • PD₁₀₀ is the dose of polymyxin B or its conjugated form which, when injected into a hypersensitized test animal, results in at least 95 % survival; • Therapeutic Index (TI) is calculated by dividing LD₁₀₀ by PD₁₀₀.
PMB (native and conjugated forms) are evaluated for their inherent toxicity in non-sensitized mice. Male CB57BL/c mice (18-22 g, Jackson Labs) are used throughout this study. Animals are given either native PMB or conjugated PMB by intraperitoneal injection (0.5 ml/animal) and lethality is monitored for 7 days. The LD₁₀₀ is determined by varying the dose of PMB (native and conjugated forms) that result in 100 % lethality. From 10 to 20 animals are used for each dose.

[2] = tested on: E.coli 0111B4 endotoxin; assay: Endotoxin-induced lethality test, i.v. treatment, Example 4; type: in vivo; details: i.v. injection 1-3 minutes before an LD90 i.p. injection of E.coli 0111B4 endotoxin (0.5 µg/kg)
[3] = Toxicity (lethality) after i.v. injection, Example 4; type: in vivo
Experimental: The ultra-pure PMB-conjugate has an LD₀ of > 100 mg/kg and it has not been possible to establish an LD₁₀₀ due to its inherent non-toxicity. Comparisons in the table below are made between the highest non-toxic dose of PMB (native or conjugated): […]

[4] = tested on: endotoxin (0111B₄); assay: PMB anti-endotoxin evaluation (endotoxin-induced lethality in galactosamine-hypersensitized mice), i.p.; type: in vivo, Male CB57BL/c mice
Experimental: as §1
Male CB57BL/c mice (18-22 g, Jackson Labs) are used throughout this study. Animals are given endotoxin (0111B₄ from List Biologicals, Palo Alto, CA, USA) and galactosamine to hypersensitize, as described in Galanos et al., Proc. Natl. Acad. Sci. USA 76 (1979) 5939. The endotoxin and galactosamine (320 mg/kg) are injected intraperitoneally in 0.5 ml pyrogen-free isotonic saline per animal between 13:00 and 15:00 to avoid diurnal variation. From a dose-response study, it is determined that 0.01 mg/kg endotoxin produces 85-95 % lethality. Animals are observed each day for 6 days after injection.
PMB (native and conjugated forms) are evaluated for their ability to neutralize endotoxin by either pre-mixing with endotoxin for 60 minutes before i.p. injection or by coadministration of the substances as a single i.p. injection. […]

## polymyxin B [Native PMB]
[1]
  LD₁₀₀: 25 mg/kg
[2]
  PD₁₀₀: 0.1 mg/kg
[3]; i.v.
  LD₁₀₀ i.v.: 9.5 mg/kg
[3]; i.v. injection, lethality monitored over 7 days, highest non-toxic dose
  LD₀: 5 mg/kg
[4]; PMB or conjugate allowed to react with the endotoxin for 60 min before i.p. injection
  PD₁₀₀: 2 mg/kg
[4]; i.p., hypersensitized mice (galactosamine 320 mg/kg, endotoxin 0.01 mg/kg), pre-mixing or coadministration not stated for these rows
  PD₁₀₀: 2 mg/kg

Reference: EP0428486B1, “Polymyxin conjugates” (SANDOZ LTD., priority 1989, dated 1991)
